{"source": "patent US9573873B2", "about": "“Catalytic method for dibenzocycloheptane synthesis and allocolchicinoid synthesis” (UNIVERSITY OF WINDSOR, priority 2014, dated 2017)", "origin": "cited, not measured here", "settings": "Phase 2 clinical testing; background statement"}
{"smiles": "COc1cc2c(c(OC)c1OC)-c1ccc(OP(=O)(O)O)cc1[C@@H](NC(C)=O)CC2", "note": "[ZD 6126, N-Acetylcolchicinol dihydrogen phosphate]", "values": [{"measurement": "cardiotoxicity", "result": "failed in Phase 2 clinical testing because of this cardiotoxicity"}]}
